Reference: the supplement of paper PMC6045584
± gives the standard deviation of the averaged measurements.

What was measured:
[1] = compound: Cc1nc(Nc2n[nH]c3c2CN(C(=O)N[C@H](CN(C)C)c2ccccc2)C3(C)C)c2sccc2n1; experiment: area under dose-response curve of surviving fraction (unscaled, Aref=0) (surviving fraction x log10(nM)); higher = more resistant; settings: exposure time: 5 days; dose range 0.5-1000 nM
In short: (§1)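 Inhibitor was applied to tumour cell lines at eight concentrations (0.5 to 1000 nM) for five days in 384-well plates. Luminescence from CellTiter-Glo, scaled to DMSO-only wells, gave surviving fractions in three screens per line, and these were fitted by 3-parameter logistic regression with the drc R package. The area under the curve is an unscaled activity area. Aref was 0, and dose was on a log10 scale.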

GEMCITABINE = compound: Nc1ccn([C@@H]2O[C@H](CO)[C@@H](O)C2(F)F)c(=O)n1 [GEMCITABINE]; experiment: as above; settings: exposure time: 5 days; dose range 0.5-1000 nM
In short: as §1

VINORELBINE = compound: CCC1=C[C@@H]2CN(C1)Cc1c([nH]c3ccccc13)[C@@](C(=O)OC)(c1cc3c(cc1OC)N(C)[C@H]1[C@@](O)(C(=O)OC)[C@H](OC(C)=O)[C@]4(CC)C=CCN5CC[C@]31[C@@H]54)C2 [VINORELBINE]; experiment: as above; settings: exposure time: 5 days; dose range 0.5-1000 nM
In short: as §1

ETOPOSIDE = compound: COc1cc([C@@H]2c3cc4c(cc3[C@@H](O[C@@H]3O[C@@H]5CO[C@@H](C)O[C@H]5[C@H](O)[C@H]3O)[C@H]3COC(=O)[C@H]23)OCO4)cc(OC)c1O [ETOPOSIDE]; experiment: as above; settings: exposure time: 5 days; dose range 0.5-1000 nM
In short: as §1

EVEROLIMUS = compound: CO[C@H]1C[C@@H]2CC[C@@H](C)[C@@](O)(O2)C(=O)C(=O)N2CCCC[C@H]2C(=O)O[C@H]([C@H](C)C[C@@H]2CC[C@@H](OCCO)[C@H](OC)C2)CC(=O)[C@H](C)/C=C(\C)[C@@H](O)[C@@H](OC)C(=O)[C@H](C)C[C@H](C)/C=C/C=C/C=C/1C [EVEROLIMUS]; experiment: surviving fraction relative to DMSO-only wells; higher = less growth inhibition; settings: exposure time: 5 days
In short: (§2)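 Continuous five-day exposure to inhibitors at 0.5, 1, 5, 10, 50, 100, 500 and 1000 nM started 24 hours after log-phase tumour cell lines were seeded at 250–500 cells per well in 384-well plates. Luminescence was read after 10 minutes at room temperature. Viability is given as surviving fraction, meaning CellTiter-Glo luminescence normalised to the median of DMSO-only wells.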

ERLOTINIB = compound: C#Cc1cccc(Nc2ncnc3cc(OCCOC)c(OCCOC)cc23)c1 [ERLOTINIB]; experiment: as above; settings: exposure time: 5 days
In short: as §2

Test System	area under dose-response curve [1]	area under dose-response curve (GEMCITABINE)	area under dose-response curve (VINORELBINE)	area under dose-response curve (ETOPOSIDE)	surviving fraction (EVEROLIMUS; 0.5 nM)	surviving fraction (EVEROLIMUS; 1 nM)	surviving fraction (EVEROLIMUS; 5 nM)	surviving fraction (EVEROLIMUS; 10 nM)	surviving fraction (EVEROLIMUS; 50 nM)	surviving fraction (EVEROLIMUS; 100 nM)	surviving fraction (EVEROLIMUS; 500 nM)	surviving fraction (EVEROLIMUS; 1000 nM)	surviving fraction (ERLOTINIB; 0.5 nM)	surviving fraction (ERLOTINIB; 1 nM)	surviving fraction (ERLOTINIB; 5 nM)	surviving fraction (ERLOTINIB; 10 nM)	surviving fraction (ERLOTINIB; 50 nM)	surviving fraction (ERLOTINIB; 100 nM)	surviving fraction (ERLOTINIB; 500 nM)	surviving fraction (ERLOTINIB; 1000 nM)
MDAMB468 BREAST	0.925	1.09	1.33	3.72	0.759 ± 0.076	0.669 ± 0.043	0.599 ± 0.031	0.546 ± 0.045	0.55 ± 0.017	0.601 ± 0.0052	0.551 ± 0.044	0.522 ± 0.066	1.06 ± 0.052	0.995 ± 0.038	1.14 ± 0.072	1.05 ± 0.035	1.15 ± 0.12	1.105 ± 0.011	0.902 ± 0.06	0.748 ± 0.04
MFM223 BREAST	1.83	1.99	1.45	3.2	0.953 ± 0.069	0.912 ± 0.077	0.73 ± 0.049	0.749 ± 0.082	0.669 ± 0.053	0.638 ± 0.068	0.706 ± 0.076	0.754 ± 0.053	1.44 ± 0.48	1.5 ± 0.64	1.49 ± 0.59	1.48 ± 0.48	1.16 ± 0.13	1.2 ± 0.039	1.22 ± 0.052	1.16 ± 0.033
MG63 BONE	1.34	1.03	1.86	3.13	0.954 ± 0.019	0.8723 ± 0.0081	0.747 ± 0.027	0.6393 ± 0.0057	0.594 ± 0.026	0.57 ± 0.02	0.481 ± 0.021	0.4813 ± 0.0035	–	1.08 ± 0.041	1.12 ± 0.014	1.1 ± 0.019	1.14 ± 0.045	1.1 ± 0.047	1.07 ± 0.066	–
MHM BONE	2.58	1.46	2.21	3.23	0.926 ± 0.063	0.864 ± 0.049	0.743 ± 0.057	0.696 ± 0.059	0.664 ± 0.029	0.672 ± 0.019	0.63 ± 0.011	0.638 ± 0.032	1.02 ± 0.036	1.03 ± 0.035	–	–	1.04 ± 0.016	1.064 ± 0.001	1.038 ± 0.01	0.998 ± 0.03
NCIH441 LUNG	1.92	0.954	2.25	2.86	1.15 ± 0.031	1.08 ± 0.098	1.183 ± 0.0021	1.04 ± 0.049	0.864 ± 0.097	1.03 ± 0.082	0.933 ± 0.056	0.876 ± 0.076	1.2 ± 0.086	1.16 ± 0.14	1.09 ± 0.083	1.08 ± 0.12	1.08 ± 0.067	1.11 ± 0.1	0.992 ± 0.086	1.17 ± 0.12
NY BONE	1.56	1.11	1.35	3.17	0.789 ± 0.012	0.766 ± 0.024	0.729 ± 0.01	0.688 ± 0.019	0.692 ± 0.013	0.707 ± 0.015	0.644 ± 0.032	0.6403 ± 0.0042	1.01 ± 0.019	0.963 ± 0.029	–	1.05 ± 0.037	–	–	0.983 ± 0.01	–
OS25HAL BONE	1.54	0.944	1.8	3.02	0.863 ± 0.044	0.846 ± 0.0091	0.679 ± 0.029	0.622 ± 0.042	0.598 ± 0.014	0.581 ± 0.039	0.546 ± 0.034	0.52 ± 0.022	0.997 ± 0.016	1.04 ± 0.048	1.02 ± 0.024	–	1.09 ± 0.063	1.17 ± 0.043	1.09 ± 0.027	1 ± 0.035
PCI30 HEADNECK	1.83	1.8	1.21	3.08	0.715 ± 0.07	0.6 ± 0.029	0.52 ± 0.027	0.508 ± 0.02	0.5 ± 0.051	0.508 ± 0.025	0.463 ± 0.03	0.468 ± 0.013	1.05 ± 0.12	–	1.12 ± 0.066	1.07 ± 0.078	–	0.951 ± 0.1	0.538 ± 0.036	0.508 ± 0.029
RDES SOFT TISSUE	2.66	1.4	1.91	2.91	1.09 ± 0.067	1.1 ± 0.099	1.11 ± 0.039	1.11 ± 0.087	0.981 ± 0.049	1.03 ± 0.12	1 ± 0.13	1.04 ± 0.063	1.21 ± 0.057	1.28 ± 0.14	1.12 ± 0.18	1.27 ± 0.015	–	1.28 ± 0.1	1.24 ± 0.025	1.32 ± 0.1
S68 BREAST	1.4	1.22	1.53	2.65	0.839 ± 0.17	0.547 ± 0.045	0.479 ± 0.048	0.434 ± 0.049	0.356 ± 0.06	0.336 ± 0.043	0.26 ± 0.027	0.285 ± 0.024	1.05 ± 0.32	1.07 ± 0.37	0.808 ± 0.13	1.15 ± 0.036	1.14 ± 0.25	1.11 ± 0.3	0.743 ± 0.079	0.564 ± 0.03
SAOS2 BONE	1.41	0.983	1.6	3.15	1.13 ± 0.094	1.12 ± 0.054	1.0323 ± 0.00058	0.943 ± 0.044	0.909 ± 0.048	0.936 ± 0.025	0.826 ± 0.064	0.71 ± 0.049	1.22 ± 0.066	1.2 ± 0.044	1.18 ± 0.095	1.24 ± 0.035	1.26 ± 0.12	1.23 ± 0.051	1.09 ± 0.094	1.05 ± 0.075
SCC47 HEADNECK	1.99	2.22	1.84	3.17	1.02 ± 0.053	1 ± 0.017	1.01 ± 0.053	0.95 ± 0.024	0.961 ± 0.053	0.961 ± 0.043	0.937 ± 0.16	0.843 ± 0.032	1.13 ± 0.079	1.11 ± 0.015	1.231 ± 0.0078	1.17 ± 0.092	1.15 ± 0.051	1.07 ± 0.021	0.822 ± 0.052	0.724 ± 0.037
